What was measured:
[1] = system: SKBR-3 human breast cancer cells; experiment: MTT cell proliferation assay, SKBR-3; assay type: cell-based; details: SK-BR-3, SKBR-3 cells, SEM < 10%, read-out: GI50s SKBR-3
Description: (§1) MCF-7, MDA-MB-231, MDA-MB-468 and SKBR-3 human breast cancer cells and LNCaP, PC-3, and CWR22Rv1 human prostate carcinoma cells (American Type Culture Collection, Manassas, Va., USA) were maintained in RPMI 1640 media (Gibco-Life Technologies, Grand Island, N.Y., USA) supplemented with 10% fetal bovine serum and 1% penicillin/streptomycin. Western blotting was done as mentioned previously,^8, 13b using the following antibodies: AR, Bad, Bax, Bcl-2, eIF4E, Mnk1, Mnk-2, N-cadherin, PARP, peIF4E^ser209 purchased from Cell Signaling Technology, Danvers, Mass., USA. Anti-Mnk2 was purchased from Sigma-Aldrich and normal rabbit IgG, cyclin D1 was from Santa Cruz Biotechnology, CA, USA.
(§2) Cells were plated (2500 cells/well) in 96 well plates and treated with or without specified compounds as described previously.^8a, 12b
(§3) The clinically relevant retinoids, ATRA and 4-HPR and the Mnk inhibitor, cercosporamide were used as comparators in the assays.

[2] = system: PC-3 human prostate carcinoma cells; experiment: MTT cell proliferation assay, PC-3; assay type: cell-based; details: PC-3 cells, SEM < 10%, read-out: GI50s PC-3
Description: as §1, §2, §3
The PC-3 cell line was the least sensitive to all the compounds tested.

[3] = system: fAR, Mnk1/2, peIF4E, cyclin D1 and cleaved PARP; experiment: Western blot of lysates from LNCaP cells; assay type: cell-based, human; details: 0.6-20 μM, 24 hours
Description: as §1
Equal protein concentrations from LNCaP cells treated with Compounds 16, 20 and 22 at different concentrations (0.6-20 μM) for 24 hours were separated by SDS-PAGE and western blots probed with antibodies to fAR, Mnk1/2, peIF4E, cyclin D1 and cleaved PARP. Vehicle treated cells were included as a control and all blots were reprobed for β-actin for loading control.

PC-3 cells = experiment: Wound-healing assay, PC-3 cell migration; assay type: cell-based, human; details: 5 μM, 24 hours
Procedure: Wound healing assay and matrigel invasion assay were also conducted as described previously using highly metastatic PC-3 cells following treatment with 5 μM of RRs for 24 h.^8a,26
Based on previous studies with closely related compound,^8 the inhibitory effects of Compounds 16, 20 and 22 on cell migration were evaluated, using the human metastatic PC cell line, PC-3 by wound-healing assay. PC-3 cells (5×10^5 cells/well) were seeded on Boyden chamber, grown to confluence and scratches made at experimental tome zero. The cells were treated with indicated compounds (5 μM each) for 24 hours. Representative photomicrographs of initial and final wounds are shown at 100× magnification. […] At 24 hours after cell monolayers were wounded, control cells had completely filled in the scratched area.

[4] = system: MDA-MB-231 xenograft tumors; experiment: MDA-MB-231 anti-tumor efficacy study (xenograft); assay type: in vivo
Procedure: All animal studies were performed according to the guidelines and approval of the Animal Care Committee of the University of Maryland School of Medicine, Baltimore (UMB). Female Athymic Nude mice or male SCID (Charles Rivers Laboratories or UMB facilities) at 4-6 weeks of age were maintained in a pathogen-free environment. MDA-MB-231 (10×10^6) cells were subcutaneously implanted into Athymic Nude mice and CWR22Rv1 (1×10^6) cells into male SCID mice. Mice bearing established tumors (˜100 mm^3) were randomized into treatment groups of 6 and dosed with vehicle (40% β-cyclodexdrin in ddH2O), or compounds 20 and 22 (i.p., formulated in 40% β-cyclodexdrin in ddH2O, once daily, 5 days a week for 28 days).
The National Cancer Institute (NCI) criteria^23 were used to determine tumor growth efficacy of our compounds. Thus, percent test or treatment/control (% T/C), defined as the ratio of the median tumor volume for the treated group versus control group, was calculated as % T/C=[(median tumor volume of treated group at day 28)/(median tumor volume of control group at day 28)]×100.
Indeed, the two compounds were equipotent (FIG. 9A). […] Representative photos of the tumor-bearing mice in the control and the two treatment groups at termination of experiment (day 28) are presented in FIG. 9B.

[5] = system: fAR, AR-V7, Mnk-1, peIF4E and their downstream targets; experiment: Molecular analysis of CWR22Rv1 tumors; assay type: in vivo; details: CWR22Rv1 tumors from treated mice
Description: To assess their in vivo mode of action, we evaluated the effects of Compound 20 on fAR, AR-V7, Mnk-1, peIF4E and their downstream targets.

[6] = MDA-MB-231 xenograft mice, i.p. 20 mg/kg 5×/week over 28 days

CC1=C(/C=C/C(C)=C/C=C/C(C)=C\C(=O)Nc2cccc(F)c2)C(C)(C)CCC1n1ccnc1 (stereo not shown) [Compound 20, (2Z,4E,6E,8E)-9-(3-(1H-imidazol-1-yl)-2,6,6-trimethylcyclohex-1-en-1-yl)-N-(3-fluorophenyl)-3,7-dimethylnona-2,4,6,8-tetraenamide]
IC50 [1]: 17 µM | IC50 [2]: 5.62 µM | cleaved PARP (c-PARP) [3]: induced cleaved PARP | cyclin D1 [3]: significant depletion | expression of total eIF4E [3]: no noticeable effects | expressions of fAR, Mnk1 and Mnk2 [3]: significantly and in a dose-dependent fashion, reduced | migration of PC-3 cells (PC-3 cells): significantly inhibited migration | body weight [4, 6]: did not lose body weight | signs of toxicity / adverse events [4, 6]: no apparent adverse events | suppression of tumor growth ([4]; MDA-MB-231 xenografts, i.p. 20 mg/kg 5×/week over 28 days): 85.4% | % T/C (treated/control median tumor volume) ([4]; MDA-MB-231 xenografts, i.p. 20 mg/kg 5×/week, day 28): 14.6% | fAR, AR-V7, Mnk1/2, peIF4E, cyclin D1 and Bcl-2 in tumors [5]: depletion | pro-apoptotic protein Bad in tumors [5]: up-regulation
